Test [1] deals with 3-phosphoinositide-dependent protein kinase 1, PDPK1 (Homo sapiens) (UniProt O15530). Put plainly: Inhibition of PDK1 (unknown origin).
For test [2], the target named is Serine/threonine-protein kinase 4, STK4/MST1 (Homo sapiens) (UniProt Q13043). Put plainly: Inhibition of MST1 (unknown origin).
Chain of Serine/threonine-protein kinase 4, STK4/MST1 (Homo sapiens) (Q13043 whole entry, looked up): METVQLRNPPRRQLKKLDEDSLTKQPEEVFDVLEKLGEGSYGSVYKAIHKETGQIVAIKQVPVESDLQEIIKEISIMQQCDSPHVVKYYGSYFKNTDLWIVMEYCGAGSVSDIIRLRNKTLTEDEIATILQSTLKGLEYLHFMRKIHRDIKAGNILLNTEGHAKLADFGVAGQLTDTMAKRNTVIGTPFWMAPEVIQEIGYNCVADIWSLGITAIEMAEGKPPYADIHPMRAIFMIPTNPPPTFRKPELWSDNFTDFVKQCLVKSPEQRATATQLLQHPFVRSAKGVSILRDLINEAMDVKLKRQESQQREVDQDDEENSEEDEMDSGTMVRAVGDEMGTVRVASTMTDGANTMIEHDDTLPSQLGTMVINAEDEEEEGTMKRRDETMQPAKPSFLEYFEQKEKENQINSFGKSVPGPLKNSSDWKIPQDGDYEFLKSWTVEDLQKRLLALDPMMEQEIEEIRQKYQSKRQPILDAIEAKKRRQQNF

Chain of 3-phosphoinositide-dependent protein kinase 1, PDPK1 (Homo sapiens) (O15530 whole entry, looked up): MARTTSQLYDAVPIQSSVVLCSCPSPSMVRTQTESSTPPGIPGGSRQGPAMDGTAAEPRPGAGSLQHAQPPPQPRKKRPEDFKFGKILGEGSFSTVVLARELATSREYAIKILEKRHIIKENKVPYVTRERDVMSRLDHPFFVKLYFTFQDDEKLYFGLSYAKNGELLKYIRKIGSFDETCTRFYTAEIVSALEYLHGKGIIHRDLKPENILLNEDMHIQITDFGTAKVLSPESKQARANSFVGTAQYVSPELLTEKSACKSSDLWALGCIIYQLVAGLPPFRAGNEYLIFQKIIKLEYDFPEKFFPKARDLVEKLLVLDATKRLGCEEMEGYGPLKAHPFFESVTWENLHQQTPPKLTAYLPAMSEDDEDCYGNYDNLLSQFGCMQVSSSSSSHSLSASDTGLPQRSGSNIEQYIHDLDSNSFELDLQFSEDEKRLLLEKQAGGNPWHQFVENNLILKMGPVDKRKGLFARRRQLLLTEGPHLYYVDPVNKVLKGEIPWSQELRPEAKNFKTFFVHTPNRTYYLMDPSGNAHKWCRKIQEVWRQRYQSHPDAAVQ

As usually defined, the IC50 is the concentration at which inhibition is half-maximal. Read a high IC50 as a need for much substance. For `O=C(c1ccc(F)c(F)c1Nc1ccc(I)cc1F)N1CC(O)([C@@H]2CCCCN2)C1`, the half-inhibitory concentration (IC50) in test [1] and in test [2] was greater than 10 µM each time.

These data come from BindingDB's records for PubMed 22084396 (Genentech, Inc and Exelixis).
